{"source": "patent US4701441A", "about": "“Methods and compositions for stimulation of appetite” (University of Florida, priority 1985, dated 1987)", "key": {"[1]": {"details": "intravenous administration, Konturek et al; cited from earlier work"}, "[2]": {"tested_on": "hyperphagic obese mice", "details": "cited from earlier work"}, "[3]": {"tested_on": "ovariectomized rats pretreated with estradiol benzoate plus progesterone", "test": "Food intake and ingestive behavior after two ivt injections, Example 1", "format": "in vivo, rat", "experimental": "Adult female rats (CRL:CD® (SD)BR, Charles River Breeding Labs, Wilmington, MA) were maintained in individual wire bottom cages under controlled temperature and light (lights on 0500-1900 h) with ad libitum access to food and water. Rats were ovariectomized and permanent cannulae were implanted in the third cerebral ventricle under pentobarbital anesthesia (40 mg/kg, […]). Eleven to 13 days after surgery, rats were treated with estradiol benzoate (30 μg in 0.1 ml sesame oil, sc) and progesterone (15 mg in 0.3 ml sesame oil, sc). Two days later […], food and water were removed and patency of the ivt cannula was checked by observing efflux of cerebrospinal fluid. […] Immediately after the ivt injections, rats were returned to their home cages which contained a known amount of rat chow and observed for 60 min. The behavior was recorded in 5 mutually exclusive categories: eating, grooming, locomotion, resting and other [Blundell, Bio-grammar of Feeding: Pharmacological Manipulations and Their Interpretations. In: Cooper, S. J. (ed) Theory in Psychopharmacology, Academic Press, N.Y., Vol. I: 233 (1981)] the following measurements were derived; total food intake (g); latency to feeding response (min); duration of time spent eating (min); number of eating bouts (n); duration of eating bouts (min) and local eating rate (g/min). Local eating rate is a measure of amount of food consumed per unit time spent eating.\nAlthough no attempt was made to quantify the water intake, the latency to drinking and amount of time spent on drinking were monitored.\nThe number of animals feeding and drinking after peptide treatment were compared with saline-treated rats by the Fisher exact probability test. Parameters of ingestive behavior of controls vs. peptide treated groups were analyzed by the Mann-Whitney U test. Comparisons within groups of parameters after the first and second injections were made with the Wilcoxon matched pairs - signed rank test.\n(*=P<0.05; **=P<0.01, Mann-Whitney U tests; a=p<0.05; b=P<0.025; c=P<0.005, Fisher Exact Probability Test) and S=saline."}, "[4]": {"tested_on": "estradiol benzoate-progesterone-treated ovariectomized rats", "test": "Ingestive behavior noticed after ivt hPP during LH release studies", "format": "in vivo, rat", "details": "intraventricular (ivt) administration", "from_the_text": "251; Morley et al (1973), Neurosci. Biobehav. Revs. 7: 281]. Recently, Tatemoto, Proc. Natl. Acad. Sci. USA. […] The detailed distribution pattern of neurons displaying NPY-like immunoreactivity in the rat brain has been described [Allen et al (1983), Science 221:877; Allen et al (1983), 13th Ann. Mtg. Soc. Neurosci. 9:291 (Abstr.); O'Donohue et al (1983), 13th Ann. Mtg. Soc. Neurosci. 9:290 (Abstr.)]. The physiological significance of NPY-like immunoreactivity in the rat brain is presently unknown."}, "[5]": {"tested_on": "normal adult male rats", "test": "Food intake after NPY and RPP by the Example 1 procedure, Example 3", "format": "in vivo, rat"}, "[6]": {"details": "hyperphagic obese mice, Malaisse et al"}, "[7]": {"details": "obese mice, intravenous, Zipf et al"}, "[8]": {"details": "2 or 10 μg ivt, after second injection, P<0.02"}}, "note": "Like-named read-outs stand apart in the source and are kept apart here. Ends that are not written are not given here."}
{"molecule": "NC(=O)[C@@H]1CCCN1C(=O)[C@H](Cc1cnc[nH]1)NC(=O)[C@@H]1CCC(=O)N1", "note": "[TRH, p-Glu-His-Pro-NH2]", "values": [{"measurement": "food intake", "setting": "[1]", "result": "suppressed food intake"}]}
{"molecule": "bovine pancreatic polypeptide [bovine PP]", "values": [{"measurement": "body weight gain", "setting": "[2]; [6]", "result": "suppressed body weight gain"}, {"measurement": "food intake", "setting": "[2]; [6]", "result": "reduced food intake"}, {"measurement": "food intake", "setting": "[2]; [7]", "result": "decrease of food intake"}, {"measurement": "weight gain", "setting": "[2]; [7]", "result": "decrease in weight gain"}]}
{"molecule": "human pancreatic polypeptide (APLEPVYPGDNATPEQMAQYAADLRRYINMLTRPRY; ends and bridges not checked; UniProt P01298 30-65, looked up) [hPP, human pancreatic polypeptide, straight-chain 36 amino acid residues; from Boehringer Mannheim]", "values": [{"measurement": "rats that ate after the first injection", "setting": "[3]; 2 μg ivt", "result": "4/6"}, {"measurement": "rats in which the drinking response preceded the feeding response", "setting": "[3]; 10 μg ivt", "result": "3/7"}, {"measurement": "rats that ate after the first injection", "setting": "[3]; 10 μg ivt", "result": "5/7"}, {"measurement": "amount of time spent drinking", "setting": "[3]; [8]", "result": "only the higher does of hPP produced a similar response"}, {"measurement": "number of animals drinking", "setting": "[3]; [8]", "result": "only the higher does of hPP produced a similar response"}, {"measurement": "cumulative food intake", "setting": "[3]; 2 or 10 μg ivt, compared with saline treated control rats", "result": "stimulated cumulative food intake"}, {"measurement": "number of rats grooming during the observation periods", "setting": "[3]; ivt", "result": "Neither peptide altered the number of rats grooming"}, {"measurement": "ingestive behavior", "setting": "[4]", "result": "enhanced ingestive behavior"}]}
{"molecule": "rat pancreatic polypeptide (APLEPMYPGDYATHEQRAQYETQLRRYINTLTRPRY; ends and bridges not checked; UniProt P06303 30-65, looked up) [RPP, rat pancreatic polypeptide, member of the vertebrate pancreatic polypeptides (Pancreatic Hormone III)]", "values": [{"measurement": "cumulative food intake", "setting": "[5]", "result": "enhanced cumulative food intake which is dose-dependent"}]}
